The values below come from PMC6615598, “Novel antibiotics effective against gram-positive and -negative multi-resistant bacteria with limited resistance” (PLoS Biology, 2019).

SMILES strings stand for the structures. Several values for one entry are separate records, joined by “and”; a condition that tells them apart may be missing. Equal entries are not always repeated. Starred links: 1 amine or outer side, 2 acyl side, 3 side chain; linkers in the order of their positions; H or OH if unused. Non-standard residues stand in square brackets, D forms with d. Residues, ends and D or L forms follow the SMILES beside them. azaβ3(1Nal) = O=C(CN(Cc1cccc2ccccc12)N[*:1])[*:2]

In one series the test system is zebrafish embryos. Kind of series: Zebrafish embryo quantitative toxicity (size, curvature, cardiac frequency). Here is the method:
Adult fish were kept in 30l aquariums at 27°C ± 2°C under constant light/dark (14:10 h) cycles. The day before the embryos were used, males and females were placed in breeding tanks. The fish were left undisturbed overnight, and the eggs were collected 1 h after the light was turned on the next morning. When the injections of the cyclic peptides started, embryos were transferred into microtiter plates placed at 28°C for 24 h. Peptides were prepared at 1, 10, 20, 40, and 100 mM concentrations in water, and injections were performed into the caudal vein. Each peptide was injected at 1 nl for all concentrations except 100 mM, when 2 nl was injected. Control embryos were injected with 1 nl of water. When the peptides were injected, analysis determined embryo sizes, curvatures, and cardiac frequencies. Peptide concentrations were checked in 10 embryos, and these were divided among 96-well plates and analyzed under a microscope or using a magnifying glass. […] To do this, each peptide was prepared in 0.9% NaCl and injected into the tail veins of 3 male Swiss mice at 1.5, 2.0, 2.5, or 5.0 mg.kg^−1, corresponding, respectively, to calculated blood concentrations of approximately 18.5, 24.5, 31, and 62.0 μM. […] Clinical signs were recorded daily, including any reduced motor activity, piloerection, and redness in the ear lobe, cyanosis, protruding eyeballs, slow or labored breathing, loss of response in the rear legs, convulsions, or death. Body weight was recorded at least once before the beginning of the treatment period and again on the day of treatment, with the satellite group checked once during the observation period. For the groups of mice observed for 7 d, food consumption was measured once during the study. […] Hematology investigations were performed before necropsy for all animals except the satellite ones, whose blood biochemistry parameters were determined before euthanasia. […]

Another series has as its system MRSA (Mu3). Kind of series: microbe, parasite or virus in culture. As to conditions: 15 colonies. Here is the method:
For 15 d in MHB, MICs were determined daily for each pseudopeptide and their antibiotic controls. This was done using cells from the well in which the compound concentration was one-half of the MIC (1/2MIC). For each compound, the 1/2MIC well from the previous day’s MIC assay plate was re-suspended and the bacteria grown to a density of about 10^8 cells ml−1. The suspension was diluted in MHB or CAMHB (10^6 cells/ml) and then used to determine the MIC of the same compound determined by micro broth dilution. All MIC measurements were performed in duplicate. Aliquots of the 5 × 10^4 cell/ml dilutions for each 1/2MIC well were periodically plated on MHB and incubated at 35°C for 18 h to verify cell density by colony counts and for visual inspection of colony phenotypes. To control compound stability, peptide solution MICs were determined during and at the end of the 15 d and were compared to cells unexposed to antibiotics. In vivo resistance was also assessed in treated mice (1.5 mg.kg^−1) for 4 d (sepsis) or 6 d (skin abscesses). […] The broth microdilution method was performed as per EUCAST recommendations on 5 independent colonies per mouse (3 mice per set, 15 colonies per drug tested). For severe sepsis and subcutaneous abscesses, in vivo resistance was determined by plating aliquots of crude kidney extracts or abscesses on plates containing 1-, 2-, 4-, or 8-fold the peptide MICs 7 or 3 d post infections, respectively.

In a further series the test system is S. aureus. Kind of series: Intracellular ATP levels of SCV versus normal colonies from skin abscesses. In kind it is cell-based. As to conditions: individual values. Here is the method:
For the cutaneous abscess model, the mice were randomly divided into 5 sets. The mice were anesthetized with isoflurane, their dorsal fur shaved, and their skin disinfected with 70% ethanol. An overnight culture of S. aureus MRSA or P. aeruginosa LESB58 was washed with 0.9% NaCl, and then a subcutaneous injection of 2 × 10^9 CFUs and an equal amount of sterile Cytodex microcarrier beads (20 mg.ml^−1, Sigma) for S. aureus MRSA, or 10^8 CFUs for P. aeruginosa were injected into the shaved area. […] Mice were monitored every day and then euthanized with CO2 on Day 6 or on Day 3. Abscesses were excised, measured, and homogenized in PBS using an Ultra-Turax. Serial dilutions of the samples were plated on BHI (MRSA) or 2YT medium (LESB58) plates and then incubated overnight at 37°C. Afterward, the CFUs were counted and expressed as log CFU/ml. Dermonecrosis areas were calculated according to the formula π × L × W. ATP levels were determined with an ATP assay kit (Promega) according to manufacturer instructions on sets of 5 colonies harboring the SCV phenotype, and sets of 5 colonies harboring a normal phenotype, after growth on BHI plates.

The next series relates to MRSA. Kind of series: Membrane permeation, SYTO Green fluorescence. The class given is cell-based, S. aureus.

Regarding `CC(C)[C@@H]1NC(=O)[C@H](CCCNC(=N)N)NC(=O)[C@H](CCCNC(=N)N)NC(=O)[C@H](Cc2c[nH]c3ccccc23)NC(=O)[C@H](Cc2ccccc2)NC(=O)[C@H](Cc2ccccc2)NC(=O)[C@H](CCCCN)NC1=O` [Pep18] (cyclo(FFWRRVK)), the “Cardiac frequency, Mean” value is recorded as 29 heart beat/10 sec with zebrafish embryos (1 nl of 1 mM injected), 29 heart beat/10 sec in the series on zebrafish embryos (1 nl of 10 mM injected) and 22 heart beat/10 sec in the series on zebrafish embryos (1 nl of 20 mM injected).
Turning to `CC(C)[C@@H]1NC(=O)[C@H](CCCNC(=N)N)NC(=O)[C@H](CCCNC(=N)N)NC(=O)CN(Cc2cccc3ccccc23)NC(=O)[C@H](Cc2ccccc2)NC(=O)CN(Cc2cccc3ccccc23)NC(=O)[C@H](CCCCN)NC1=O` [Pep19] (cyclo([azaβ3(1Nal)]F[azaβ3(1Nal)]RRVK)), the MIC was 8 (8.8) μM against MRSA (Mu3) (MRSA colonies from kidneys of septic mice, d4, single IV 1.5 mg.kg^−1 at 3 h or 15 h) and 16 (16.2) μM in the series on MRSA (Mu3) (MRSA colonies from mice skin abscess, d6, single IV 1.5 mg.kg^−1 at 24 h). Further, the “Intracellular ATP level, 'normal growing'” value in the series on S. aureus ('normal growing' colonies from MRSA abscesses of mice treated IV with 1.5 mg.kg-1) was 128624 AU and 143636 AU and 122235 AU and 111054 AU and 122356 AU. For the same molecule, in the series with S. aureus (SCV from MRSA abscesses of mice treated IV with 1.5 mg.kg-1), the “Intracellular ATP level, SCV” value is 21955.1 AU and 16114.9 AU and 17911.8 AU and 16800 AU and 28088.5 AU. Also, in the series with MRSA, the “Membrane permeation (leakage)” value is on record as “most active”.
